In patent US20170143674A1, “Use of Glutaryl Histamine for the Treatment of Respiratory Tract Diseases” (LTD "VALENTA-INTELLEKT", priority 2011, published 2017):

Tested on: Staphylococcus aureus (mouse-adapted MRSA strain 5)
Assay: animal or person
Format: in vivo, mice
Description: Tested medicament was glutaryl histamine in doses of 15, 30 and 45 mg/kg. Solutions of the tested medicament for oral administration were prepared ex tempore in stream water. Ampicillin (in intravenous administration) was used as a therapeutic preparation since it is the most experimentally studied antibiotic approved in clinical practice many years ago. Levofloxacin was used as a positive control (in oral administration).
Staphylococcus aureus was used as an infectious agent (mouse-adapted MRSA strain 5, collection from GU NIINA im.G.F. Gauze RAMN).
Firstly, there was determined a lethal dose (LD100) of staphylococcus when intravenously administered to this line of mice with a certain weight. Fatal cases among mice were registered every day for ten days. […] After that, there was determined the dose of ampicillin providing a survival rate of 20% of mice infected with staphylococcus MRSA taken in a lethal dose. For this purpose, mice were housed into cages by 10 animals and infected with a lethal dose of staphylococcus. One hour later, each mouse was intravenously administered ampicillin in doses of 30, 60, 90, 120, 150, and 180 mg/kg. A group of mice infected with a lethal dose of staphylococcus without the treatment was considered as a control group. Fatal cases among mice were registered every day for ten days.
The next step of the experiment was to study an effect of combined administration of glutaryl histamine with ampicilline on a model of MRSA-induced staphylococcal sepsis in mice.
In the experiment, the mice were housed in following groups of 10 animals per cage: […]

[1] = group 2: ampicillin 120 mg/ml i.v. one time

In the case of CC1(C)S[C@@H]2[C@H](NC(=O)[C@H](N)c3ccccc3)C(=O)N2[C@H]1C(=O)O [ampicillin], the “Survival rate (%)” value (ampicillin 30 mg/kg + LD100 St.a., day 10) is reported as 0%, the “Survival rate (%)” value (ampicillin 60 mg/kg + LD100 St.a., day 10) is reported as 0% and the “Survival rate (%)” value (ampicillin 90 mg/kg + LD100 St.a., day 10) is reported as 10%. The “Survival rate (%)” value (ampicillin 120 mg/kg + LD100 St.a., day 10) was 20%, the “Survival rate (%)” value (ampicillin 150 mg/kg + LD100 St.a., day 10) was 20% and the “Survival rate (%)” value (ampicillin 180 mg/kg + LD100 St.a., day 10) was 20%. The died/survived animals (day 1, ampicillin 30 mg/kg + LD100 St.a.) was 0/10, the died/survived animals (day 1, ampicillin 60 mg/kg + LD100 St.a.) was 0/10 and the died/survived animals (day 1, ampicillin 90 mg/kg + LD100 St.a.) was 0/10. The died/survived animals (day 1, ampicillin 120 mg/kg + LD100 St.a.) was 0/10, the died/survived animals (day 1, ampicillin 150 mg/kg + LD100 St.a.) was 0/10 and the died/survived animals (day 1, ampicillin 180 mg/kg + LD100 St.a.) was 0/10. The died/survived animals (day 1, group 2: ampicillin 120 mg/ml i.v. one time) was 0/10, the died/survived animals (day 2, ampicillin 30 mg/kg + LD100 St.a.) was 1/9 and the died/survived animals (day 2, ampicillin 60 mg/kg + LD100 St.a.) was 0/10. For the same compound, the died/survived animals (day 2, ampicillin 90 mg/kg + LD100 St.a.) was 0/10, the died/survived animals (day 2, ampicillin 120 mg/kg + LD100 St.a.) was 0/10 and the died/survived animals (day 2, ampicillin 150 mg/kg + LD100 St.a.) was 0/10. For the same compound, the died/survived animals (day 2, ampicillin 180 mg/kg + LD100 St.a.) was 0/10, the died/survived animals (day 2, group 2: ampicillin 120 mg/ml i.v. one time) was 0/10 and the died/survived animals (day 3, ampicillin 30 mg/kg + LD100 St.a.) was 3/7. The died/survived animals (day 3, ampicillin 60 mg/kg + LD100 St.a.) was 2/8, the died/survived animals (day 3, ampicillin 90 mg/kg + LD100 St.a.) was 1/9 and the died/survived animals (day 3, ampicillin 120 mg/kg + LD100 St.a.) was 1/9. For the same compound, the died/survived animals (day 3, ampicillin 150 mg/kg + LD100 St.a.) was 0/10, the died/survived animals (day 3, ampicillin 180 mg/kg + LD100 St.a.) was 0/10 and the died/survived animals (day 3, group 2: ampicillin 120 mg/ml i.v. one time) was 1/9. The died/survived animals (day 4, ampicillin 30 mg/kg + LD100 St.a.) was 6/4, the died/survived animals (day 4, ampicillin 60 mg/kg + LD100 St.a.) was 4/6 and the died/survived animals (day 4, ampicillin 90 mg/kg + LD100 St.a.) was 3/7. The died/survived animals (day 4, ampicillin 120 mg/kg + LD100 St.a.) was 4/6, the died/survived animals (day 4, ampicillin 150 mg/kg + LD100 St.a.) was 3/7 and the died/survived animals (day 4, ampicillin 180 mg/kg + LD100 St.a.) was 2/8. The died/survived animals (day 4, group 2: ampicillin 120 mg/ml i.v. one time) was 2/8, the died/survived animals (day 5, ampicillin 30 mg/kg + LD100 St.a.) was 8/2 and the died/survived animals (day 5, ampicillin 60 mg/kg + LD100 St.a.) was 6/4. The died/survived animals (day 5, ampicillin 90 mg/kg + LD100 St.a.) was 5/5, the died/survived animals (day 5, ampicillin 120 mg/kg + LD100 St.a.) was 6/4 and the died/survived animals (day 5, ampicillin 150 mg/kg + LD100 St.a.) was 5/5. The died/survived animals (day 5, ampicillin 180 mg/kg + LD100 St.a.) was 4/6, the died/survived animals (day 5, group 2: ampicillin 120 mg/ml i.v. one time) was 3/7 and the died/survived animals (day 6, ampicillin 30 mg/kg + LD100 St.a.) was 9/1. The died/survived animals (day 6, ampicillin 60 mg/kg + LD100 St.a.) was 8/2, the died/survived animals (day 6, ampicillin 90 mg/kg + LD100 St.a.) was 7/3 and the died/survived animals (day 6, ampicillin 120 mg/kg + LD100 St.a.) was 7/3. For the same compound, the died/survived animals (day 6, ampicillin 150 mg/kg + LD100 St.a.) was 7/3, the died/survived animals (day 6, ampicillin 180 mg/kg + LD100 St.a.) was 6/4 and the died/survived animals (day 6, group 2: ampicillin 120 mg/ml i.v. one time) was 5/5. For the same compound, the died/survived animals (day 7, ampicillin 30 mg/kg + LD100 St.a.) was 10/0, the died/survived animals (day 7, ampicillin 60 mg/kg + LD100 St.a.) was 9/1 and the died/survived animals (day 7, ampicillin 90 mg/kg + LD100 St.a.) was 8/2. The died/survived animals (day 7, ampicillin 120 mg/kg + LD100 St.a.) was 8/2, the died/survived animals (day 7, ampicillin 150 mg/kg + LD100 St.a.) was 7/3 and the died/survived animals (day 7, ampicillin 180 mg/kg + LD100 St.a.) was 7/3. For the same compound, the died/survived animals (day 7, group 2: ampicillin 120 mg/ml i.v. one time) was 6/4, the died/survived animals (day 8, ampicillin 30 mg/kg + LD100 St.a.) was 10/0 and the died/survived animals (day 8, ampicillin 60 mg/kg + LD100 St.a.) was 10/0. For the same compound, the died/survived animals (day 8, ampicillin 90 mg/kg + LD100 St.a.) was 9/1, the died/survived animals (day 8, ampicillin 120 mg/kg + LD100 St.a.) was 8/2 and the died/survived animals (day 8, ampicillin 150 mg/kg + LD100 St.a.) was 8/2. For the same compound, the died/survived animals (day 8, ampicillin 180 mg/kg + LD100 St.a.) was 7/3, the died/survived animals (day 8, group 2: ampicillin 120 mg/ml i.v. one time) was 7/3 and the died/survived animals (day 9, ampicillin 30 mg/kg + LD100 St.a.) was 10/0. The died/survived animals (day 9, ampicillin 60 mg/kg + LD100 St.a.) was 10/0, the died/survived animals (day 9, ampicillin 90 mg/kg + LD100 St.a.) was 9/1 and the died/survived animals (day 9, ampicillin 120 mg/kg + LD100 St.a.) was 8/2. The died/survived animals (day 9, ampicillin 150 mg/kg + LD100 St.a.) was 8/2, the died/survived animals (day 9, ampicillin 180 mg/kg + LD100 St.a.) was 8/2 and the died/survived animals (day 9, group 2: ampicillin 120 mg/ml i.v. one time) was 8/2. For the same compound, the died/survived animals (day 10, ampicillin 30 mg/kg + LD100 St.a.) was 10/0, the died/survived animals (day 10, ampicillin 60 mg/kg + LD100 St.a.) was 10/0 and the died/survived animals (day 10, ampicillin 90 mg/kg + LD100 St.a.) was 9/1. For the same compound, the died/survived animals (day 10, ampicillin 120 mg/kg + LD100 St.a.) was 8/2, the died/survived animals (day 10, ampicillin 150 mg/kg + LD100 St.a.) was 8/2 and the died/survived animals (day 10, ampicillin 180 mg/kg + LD100 St.a.) was 8/2. For the same compound, the died/survived animals (day 10, group 2: ampicillin 120 mg/ml i.v. one time) was 8/2, the “Mortality rate (%)” value [1] was 80% and the “Survival rate (%)” value [1] was 20%.
